Experiments:
monoubiquitinated PCNA = test: AlphaLISA assay measuring monoubiquitinated PCNA in MDA-MB-436; type: cell-based; settings: Homo sapiens, read-out: Alpha LISA IC50
Excerpt: Table 1 also indicates IC50 values for exemplary compounds in an AlphaLISA assay measuring monoubiquitinated PCNA in a BRCA1 mutant cell line (MDA-MB-436; column 7).

[1] = system: MDA-MB-436 (BRCA1 mutant) cell line; test: Viability assay in BRCA1 mutant cell line MDA-MB-436; type: cell-based; settings: Homo sapiens, MDA-MB-436, viability, BRCA1 mutant MDA-MB-436; read-out: MDA-MB-436 rel IC50
Excerpt: (§1) Table 1 also indicates IC50 values in a viability assay for a non-isogenic pair of BRCA1 mutant (column 5—MDA-MB-436) and BRCA1 WT (column 6—HCC1954) cell lines. These values indicate the effect of treatment with compound on cell survival.

[2] = system: HCC1954 (BRCA1 WT) cell line; test: Viability assay in BRCA1 WT cell line HCC1954; type: cell-based; settings: Homo sapiens, read-out: HCC 1954 IC50 rel IC50
Excerpt: as §1

USP1-UAF1 = USP1-UAF1 (Homo sapiens, UniProt O94782); test: Ubiquitin Rhodamine assay for USP1-UAF1 activity; type: biochemical
Description: Certain compounds of the disclosure were assessed for USP1-UAF1 activity in a Ubiquitin Rhodamine assay as described in Example 135.

Sequence of USP1-UAF1 (O94782 whole entry): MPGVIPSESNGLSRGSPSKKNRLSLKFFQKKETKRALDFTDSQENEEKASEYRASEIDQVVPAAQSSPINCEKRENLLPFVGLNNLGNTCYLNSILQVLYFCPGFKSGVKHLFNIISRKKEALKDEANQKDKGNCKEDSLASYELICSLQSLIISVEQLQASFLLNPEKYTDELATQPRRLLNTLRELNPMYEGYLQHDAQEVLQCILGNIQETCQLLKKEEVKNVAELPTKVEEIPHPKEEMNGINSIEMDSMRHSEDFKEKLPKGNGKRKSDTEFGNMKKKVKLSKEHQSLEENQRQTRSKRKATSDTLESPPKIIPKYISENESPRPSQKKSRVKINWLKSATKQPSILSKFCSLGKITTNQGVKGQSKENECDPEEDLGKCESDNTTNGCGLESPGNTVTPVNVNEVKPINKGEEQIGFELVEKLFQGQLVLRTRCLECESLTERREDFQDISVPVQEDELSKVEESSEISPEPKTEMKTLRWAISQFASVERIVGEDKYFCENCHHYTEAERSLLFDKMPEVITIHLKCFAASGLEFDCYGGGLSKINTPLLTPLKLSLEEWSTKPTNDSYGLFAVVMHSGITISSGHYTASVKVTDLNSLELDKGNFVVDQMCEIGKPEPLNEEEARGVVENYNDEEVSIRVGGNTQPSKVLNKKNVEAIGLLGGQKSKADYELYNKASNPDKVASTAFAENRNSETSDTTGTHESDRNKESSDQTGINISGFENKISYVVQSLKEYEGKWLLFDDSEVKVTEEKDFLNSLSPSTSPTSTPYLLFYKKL
Sequence of USP1-UAF1 (Q8TAF3 whole entry partner): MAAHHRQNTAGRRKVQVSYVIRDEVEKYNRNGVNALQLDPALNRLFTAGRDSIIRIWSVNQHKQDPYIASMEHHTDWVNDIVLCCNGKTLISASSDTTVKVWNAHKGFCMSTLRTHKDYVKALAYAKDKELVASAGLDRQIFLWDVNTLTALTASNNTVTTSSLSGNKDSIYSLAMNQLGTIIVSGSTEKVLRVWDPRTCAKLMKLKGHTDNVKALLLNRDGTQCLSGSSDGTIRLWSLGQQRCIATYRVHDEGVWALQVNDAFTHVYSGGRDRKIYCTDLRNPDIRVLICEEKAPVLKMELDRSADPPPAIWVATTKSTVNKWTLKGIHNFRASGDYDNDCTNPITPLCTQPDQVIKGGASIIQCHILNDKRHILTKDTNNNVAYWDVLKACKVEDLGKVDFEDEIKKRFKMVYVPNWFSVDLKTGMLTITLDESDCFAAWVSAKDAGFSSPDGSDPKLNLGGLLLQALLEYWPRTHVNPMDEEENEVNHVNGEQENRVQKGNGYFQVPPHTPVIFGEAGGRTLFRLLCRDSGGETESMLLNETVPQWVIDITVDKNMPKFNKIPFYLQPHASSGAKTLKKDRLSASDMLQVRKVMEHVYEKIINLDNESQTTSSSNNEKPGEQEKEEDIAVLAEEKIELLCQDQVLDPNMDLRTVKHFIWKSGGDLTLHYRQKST

Row | SMILES | IC50 (monoubiquitinated PCNA) [nM] | IC50 [1] [nM] | IC50 [2] [nM] | IC50 (USP1-UAF1) [nM]
1 | COc1ncnc(C(C)(C)C)c1-c1ncc2[nH]cc(Cc3ccc(-c4nc(C(F)(F)F)cn4C)cc3)c2n1 [Compound 124, 2-(4-tert-butyl-6-methoxy-pyrimidin-5-yl)-7-[[4-[1-methyl-4-(trifluoromethyl)imidazol-2-yl]phenyl]methyl]-5H-pyrrolo[3,2-d]pyrimidine] | 100 to 250 | < 100 | ≥ 10000 | 30 to 100
2 | COc1ncnc(C2CC2)c1-c1ncc2c(n1)c(Cc1ccc(-c3nc(C(F)(F)F)cn3C)cc1)cn2CC(F)(F)F [Compound 125, 2-(4-cyclopropyl-6-methoxy-pyrimidin-5-yl)-7-[[4-[1-methyl-4-(trifluoromethyl)imidazol-2-yl]phenyl]methyl]-5-(2,2,2-trifluoroethyl)pyrrolo[3,2-d]pyrimidine] | < 100 | < 100 | 250 to 10000 | < 30
3 | CCOc1ncnc(C2CC2)c1-c1ncc2[nH]nc(Cc3ccc(-c4nc(C(F)(F)F)cn4C)cc3)c2n1 [Compound 126, 5-(4-cyclopropyl-6-ethoxy-pyrimidin-5-yl)-3-[[4-[1-methyl-4-(trifluoromethyl)imidazol-2-yl]phenyl]methyl]-1H-pyrazolo[4,3-d]pyrimidine] | < 100 | < 100 | 250 to 10000 | < 30
4 | COc1ncnc(C2CC2)c1-c1ncc2[nH]nc(Cc3cc(F)c(-n4nc(C(F)(F)F)cc4C)c(F)c3)c2n1 [Compound 129] | 100 to 250 | 100 to 250 | 250 to 10000 | < 30
5 | COc1ncnc(C2CC2)c1-c1ncc2nn(CC(F)(F)F)c(Cc3ccc(-c4nc(C(F)(F)F)cn4C)cc3)c2n1 [Compound 131, 5-(4-cyclopropyl-6-methoxy-pyrimidin-5-yl)-3-[[4-[1-methyl-4-(trifluoromethyl)imidazol-2-yl]phenyl]methyl]-2-(2,2,2-trifluoroethyl)pyrazolo[4,3-d]pyrimidine] | < 100 | < 100 | ≥ 10000 | 100 to 10000
6 | CC(C)n1cc(C(F)(F)F)nc1-c1ccc(Cc2c[nH]c3cnc(-c4c(OC(F)F)ncnc4C4CC4)nc23)cc1 [Compound 132] | < 100 | < 100 | ≥ 10000 | < 30
7 | COc1ncnc(C2CC2)c1-c1ncc2[nH]nc(Cc3ccc(-c4nc(C(F)(F)F)cn4C4COC4)cc3)c2n1 [Compound 133, 5-(4-cyclopropyl-6-methoxy-pyrimidin-5-yl)-3-[[4-[1-(oxetan-3-yl)-4-(trifluoromethyl)imidazol-2-yl]phenyl]methyl]-1H-pyrazolo[4,3-d]pyrimidine] | 100 to 250 | < 100 | ≥ 10000 | 30 to 100
8 | COc1ncnc(C#N)c1-c1ncc2[nH]cc(Cc3ccc(-c4nc(C(F)(F)F)cn4C)cc3)c2n1 [Compound 134] | 250 to 10000 | 100 to 250 | ≥ 10000 | 30 to 100
9 | COc1cccc(OC)c1-c1ncc2[nH]nc(Cc3ccc(-c4nc(C(F)(F)F)cn4C)cc3)c2n1 [Compound 136] | 250 to 10000 | 100 to 250 | ≥ 10000 | < 30
10 | CC(C)n1cc(C(F)(F)F)nc1-c1ccc(Cc2n[nH]c3cnc(-c4c(OC(F)F)ncnc4C4CC4)nc23)cc1 [Compound 137, 5-(4-cyclopropyl-6-(difluoromethoxy)pyrimidin-5-yl)-3-(4-(1-isopropyl-4-(trifluoromethyl)-1H-imidazol-2-yl)benzyl)-1H-pyrazolo[4,3-d]pyrimidine] | < 100 | < 100 | 250 to 10000 | < 30
11 | CCn1cc(C(F)(F)F)nc1-c1ccc(Cc2c3nc(-c4c(OC)ncnc4C4CC4)ncc3nn2C)cc1 [Compound 139, 5-(4-cyclopropyl-6-methoxypyrimidin-5-yl)-3-(4-(1-ethyl-4-(trifluoromethyl)-1H-imidazol-2-yl)benzyl)-2-methyl-2H-pyrazolo[4,3-d]pyrimidine] | < 100 | < 100 | ≥ 10000 | 30 to 100
12 | COc1ncnc(C2CC2)c1-c1ncc2[nH]nc(Cc3ccc(-n4nc(C(F)(F)F)cc4OC)cc3)c2n1 [Compound 140, 5-(4-cyclopropyl-6-methoxy-pyrimidin-5-yl)-3-[[4-[5-methoxy-3-(trifluoromethyl)pyrazol-1-yl]phenyl]methyl]-1H-pyrazolo[4,3-d]pyrimidine] | 100 to 250 | < 100 | 250 to 10000 | < 30
13 | [2H]C([2H])([2H])n1nc(Cc2ccc(-c3nc(C(F)(F)F)cn3C)cc2)c2nc(-c3c(OC)ncnc3C3CC3)ncc21 [Compound 143, 5-(4-cyclopropyl-6-methoxy-pyrimidin-5-yl)-3-[[4-[1-methyl-4-(trifluoromethyl)imidazol-2-yl]phenyl]methyl]-1-(trideuteriomethyl)pyrazolo[4,3-d]pyrimidine] | < 100 | < 100 | ≥ 10000 | < 30
14 | COc1ncnc(OC)c1-c1ncc2[nH]nc(Cc3ccc(-c4nc(C(F)(F)F)cn4C)cc3)c2n1 [Compound 144] | 100 to 250 | 100 to 250 | ≥ 10000 | < 30
15 | COc1ncnc(C2CC2)c1-c1ncc2c(n1)c(Cc1ccc(-c3nc(C(F)(F)F)cn3C)cc1)cn2S(C)(=O)=O [Compound 146, 2-(4-cyclopropyl-6-methoxy-pyrimidin-5-yl)-5-methylsulfonyl-7-[[4-[1-methyl-4-(trifluoromethyl)imidazol-2-yl]phenyl]methyl]pyrrolo[3,2-d]pyrimidine] | 100 to 250 | < 100 | ≥ 10000 | < 30
16 | Cn1cc(C(F)(F)F)nc1-c1ccc(Cc2c[nH]c3cnc(-c4c(Cl)ccnc4C4CC4)nc23)cc1 [Compound 150, 2-(4-chloro-2-cyclopropylpyridin-3-yl)-7-(4-(1-methyl-4-(trifluoromethyl)-1H-imidazol-2-yl)benzyl)-5H-pyrrolo[3,2-d]pyrimidine] | < 100 | < 100 | 250 to 10000 | < 30

Second part, the molecule after the results:

Row | IC50 (monoubiquitinated PCNA) [nM] | IC50 [1] [nM] | IC50 [2] [nM] | IC50 (USP1-UAF1) [nM] | SMILES
17 | < 100 | < 100 | ≥ 10000 | < 30 | [2H]C([2H])([2H])n1cc(C(F)(F)F)nc1-c1ccc(Cc2c[nH]c3cnc(-c4c(OC)ncnc4C4CC4)nc23)cc1 [Compound 135, 2-(4-cyclopropyl-6-methoxy-pyrimidin-5-yl)-7-[[4-[1-(trideuteriomethyl)-4-(trifluoromethyl)imidazol-2-yl]phenyl]methyl]-5H-pyrrolo[3,2-d]pyrimidine]
18 | < 100 | < 100 | ≥ 10000 | < 30 | Cn1cc(C(F)(F)F)nc1-c1ccc(Cc2c[nH]c3cnc(-c4c(OC(F)F)ncnc4C4CC4)nc23)cc1 [Compound 138, 2-[4-cyclopropyl-6-(difluoromethoxy)pyrimidin-5-yl]-7-[[4-[1-methyl-4-(trifluoromethyl)imidazol-2-yl]phenyl]methyl]-5H-pyrrolo[3,2-d]pyrimidine]
19 | < 100 | < 100 | ≥ 10000 | 30 to 100 | COc1nc(C)nc(C2CC2)c1-c1ncc2[nH]cc(Cc3ccc(-c4nc(C(F)(F)F)cn4C)cc3)c2n1 [Compound 142, 2-(4-cyclopropyl-6-methoxy-2-methylpyrimidin-5-yl)-7-(4-(1-methyl-4-(trifluoromethyl)-1H-imidazol-2-yl)benzyl)-5H-pyrrolo[3,2-d]pyrimidine]
20 | < 100 | < 100 | ≥ 10000 | < 30 | COc1ncnc(C2CC2(F)F)c1-c1ncc2[nH]cc(Cc3ccc(-c4nc(C(F)(F)F)cn4C)cc3)c2n1 (centres unmarked) [Compound 147, 2-[4-(2,2-difluorocyclopropyl)-6-methoxy-pyrimidin-5-yl]-7-[[4-[1-methyl-4-(trifluoromethyl)imidazol-2-yl]phenyl]methyl]-5H-pyrrolo[3,2-d]pyrimidine]
21 | < 100 | < 100 | ≥ 10000 | < 30 | COc1ncnc(C2CC2)c1-c1nc(C)c2[nH]cc(Cc3ccc(-c4nc(C(F)(F)F)cn4C)cc3)c2n1 [Compound 148, 2-(4-cyclopropyl-6-methoxy-pyrimidin-5-yl)-4-methyl-7-[[4-[1-methyl-4-(trifluoromethyl)imidazol-2-yl]phenyl]methyl]-5H-pyrrolo[3,2-d]pyrimidine]
22 | < 100 | < 100 | ≥ 10000 | < 30 | COc1nccc(C2CC2)c1-c1ncc2[nH]cc(Cc3ccc(-c4nc(C(F)(F)F)cn4C)cc3)c2n1 [Compound 152, 2-(4-cyclopropyl-2-methoxy-3-pyridyl)-7-[[4-[1-methyl-4-(trifluoromethyl)imidazol-2-yl]phenyl]methyl]-5H-pyrrolo[3,2-d]pyrimidine]
23 | < 100 | < 100 | ≥ 10000 | < 30 | COc1ncnc(C2CC2)c1-c1ncc2[nH]cc(Cc3ccc(-c4nc(C(F)(F)F)cn4C)c(F)c3)c2n1 [Compound 153, 2-(4-cyclopropyl-6-methoxy-pyrimidin-5-yl)-7-[[3-fluoro-4-[1-methyl-4-(trifluoromethyl)imidazol-2-yl]phenyl]methyl]-5H-pyrrolo[3,2-d]pyrimidine]

Source: patent US20240182481A1 (Tango Therapeutics, Inc., priority 2021, published 2024)
